In patent publication US8119362B2, “Method of screening for compounds that can be used for the treatment of respiratory conditions” (Centre National de la Recherche Scientifique—Cnrs, priority 2007, dated 2012):

Molecular target: T1, human TASK-2 channel (Homo sapiens, UniProt O95279)
T1 construct: expressed in transfected cells; host or cells: HEK cells (Human Embryonic Kidney cells)
T1 sequence (O95279 1-499): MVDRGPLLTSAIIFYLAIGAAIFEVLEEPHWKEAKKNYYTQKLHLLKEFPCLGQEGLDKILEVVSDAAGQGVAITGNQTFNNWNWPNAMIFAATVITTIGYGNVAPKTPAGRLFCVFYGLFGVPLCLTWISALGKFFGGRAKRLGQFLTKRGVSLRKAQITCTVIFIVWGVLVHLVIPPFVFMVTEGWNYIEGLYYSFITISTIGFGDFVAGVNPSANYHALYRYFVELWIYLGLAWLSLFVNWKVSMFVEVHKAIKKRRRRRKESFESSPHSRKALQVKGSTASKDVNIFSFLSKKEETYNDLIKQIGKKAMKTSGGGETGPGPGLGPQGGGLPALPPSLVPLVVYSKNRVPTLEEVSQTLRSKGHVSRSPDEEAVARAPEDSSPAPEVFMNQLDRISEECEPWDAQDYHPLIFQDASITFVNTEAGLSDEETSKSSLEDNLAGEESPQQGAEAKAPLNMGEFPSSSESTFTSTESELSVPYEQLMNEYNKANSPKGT
Test: Patch-clamp (whole cell) recording of TASK-2 current in transfected HEK cells
Type: cell-based
Details: Doxapram at 0.9 mM in the external bath; HEK cells transfected with human TASK-2 (pIRES-CD8-hTASK2); voltage jumps; FIG. 4
Description: The following screening is used. HEK cells (Human Embryonic Kidney cells) are transfected with a plasmid containing complementary DNA from the gene of the human TASK-2 channel (pIRES-CD8-hTASK2) by the lipofectamine method. After 24 hours of culture, the TASK-2 currents are recorded using the voltage-clamp method (patch-clamp in whole cell configuration). The currents are activated by jumps in voltage from a rest potential at […] to variable values ranging from −80 to +45 mV.
The currents are recorded in whole cell configuration using an EPC-10 amplifier (HEKA). The <> pipette contains a solution of 95 K-gluconate, 30 mM KCl, 4.8 mM Na2HPO4, 1.2 mM NaH2PO4, 5 mM glucose, 2.38 mM MgCl2, 0.726 mM CaCl2, 1 mM EGTA, 3 mM ATP, pH 7.2. The external solution is a RINGER solution: 145 mM NaCl, 0.4 mM KH2PO4, 1.6 mM K2HPO4, 5 mM glucose, 1 mM MgCl2, 1.3 mM CaCl2, 5 mM HEPES, pH 7.4.
Different drugs may be applied at different concentrations by perfusion of the external bath and their effects are evaluated by the change in the currents compared with the control conditions.

- reduction of the TASK-2 current: 25%
SMILES: CCN1CC(CCN2CCOCC2)C(c2ccccc2)(c2ccccc2)C1=O (stereo not shown) [Doxapram]
